System: serum-starved C2C12 myotubes
Test: release of radiolabeled phenylalanine (total protein degradation) from serum-starved C2C12 myotubes
Type: cell-based, murine
Conditions: serum-free medium, 24 hours, vs serum (NC) and serum-free (NS) controls
Protocol: The role of EGCg alone and EGCg in combination with zinc in preventing muscle protein degradation was evaluated in an in vitro cell-based assay using serum-starved C2C12 myotubes, i.e., differentiated, elongated murine myoblasts, which are routinely used to model adult skeletal myofibers in cell culture. This assay measured the release of radiolabeled phenylalanine (Phe) from myotubes in response to a catabolic stimulus. Under normal growth conditions in the presence of growth factors supplied by 2% horse serum, the myotubes actively incorporated the amino acid Phe into newly synthesized muscle proteins. This is shown as the negative control for proteolysis (NC) in lane 1 of FIG. 1, i.e., the serum control. In the absence of the 2% horse serum, specifically C2C12 cultured in a serum-free DMEM medium, the muscle proteins began to break down, and phenylalanine was subsequently released as a free amino acid. This is shown as the serum-free, positive control for proteolysis (NS) in lane 2 of FIG. 1. […] 10 μM EGCg was added to serum-free and serum-starved myotubes alone, i.e., lane 3 of FIG. 1.
The experiment was replicated 2 times where n=6 over the same period of time for each sample, i.e., 24 hours for each sample. Results are expressed as mean±S.E.M and statistical analysis between groups was determined by one-way ANOVA followed by Tukey's test.

SMILES	total protein degradation (release of radiolabeled Phe) (10 μM EGCg alone, FIG. 1 lane 3)	total protein degradation (release of radiolabeled Phe) (10 μM zinc sulfate alone, FIG. 2 lane 3)
O=C(O[C@@H]1Cc2c(O)cc(O)cc2O[C@@H]1c1cc(O)c(O)c(O)c1)c1cc(O)c(O)c(O)c1 [EGCg, epigallocatechin gallate]	greater inhibition of total protein degradation	
O=S(=O)([O-])[O-].[Zn+2] [zinc, zinc sulfate]		promoted or increased total protein degradation
